Measurements reported in US20210032139A1, “REGULATING A MICROENVIRONMENT OF ANAEROBIC GRANULAR SLUDGE TO PROMOTE ANAEROBIC DIGESTION AND DELAY CALCIFICATION” (GuangXi University, priority 2019, published 2021).

How the values were obtained:
[1] = system: anaerobic granular sludge; experiment: Paper mill anaerobic reactor (1500 m^3) with C8-HSL added to papermaking wastewater at the regulating tank outlet
Protocol: In an anaerobic reactor of a paper mill, the reactor is 8 m high and its working volume is 1500 m^3. The papermaking wastewater with high calcium content enters into a regulating tank. The regulating tank has a volume of 1000 m^3. When it is detected that the proportion of microorganism content in the anaerobic granular sludge in the anaerobic reactor is less than 0.6, C8-HSL standard of AHLs type signal molecule is added to the paper-making wastewater at the outlet of the regulating tank end, the quantity of C8-HSL standard is 50 mg per cubic meter of papermaking wastewater. The time interval of signal molecule input is controlled by time controller. The regulating pool is equipped with liquid level transmitter to detect the liquid level to prevent the reactor feed pump from idling. The wastewater that is modulated in the regulating tank is injected into the anaerobic reactor through the wastewater feed pump and treated according to the conventional anaerobic way. In the treatment process, water samples are collected once a month, and sludge samples are collected once half a year. Sludge biomass is collected by centrifugation at 5000×g for 10 minutes, and then frozen for further sequencing analysis.

[2] = system: anaerobic granular sludge; experiment: Laboratory anaerobic serum bottle reactor treating papermaking wastewater with daily C8-HSL addition; settings: after three months; for Methanobactium, Methanosaeta and Methanosarcina in the microbial community: sequencing analysis
Protocol: First, 50 mL of anaerobic granular sludge and 200 mL of papermaking wastewater collected from a paper mill were placed in a 250 mL anaerobic serum bottle. The bioreactor used in this example involves a 24-hour operation cycle, which has a reaction stage (23.5 h) and a sludge settling stage (0.5 h).
Next, 50 mL of supernatant is removed from the top of the anaerobic serum bottle, and the same volume of fresh papermaking wastewater with N-octyl […] (C8-HSL) is injected into the bottle through a long syringe at the end of the cycle. The injected wastewater is then domesticated for about a week.
2 μg C8-HSL standards are added to the reactor every day after domestication.
The reactor is treated in a constant temperature magnetic stirring water bath at 38° C.
Water samples are collected at the beginning and end of each cycle from the reactor, and sludge samples are also collected at the end of each cycle from the reactor. After a total of three months of operation, sludge biomass is collected by centrifugation at 5000×g for 10 minutes and then frozen for further sequencing analysis. […]

[3] = 50 mg C8-HSL per cubic meter of papermaking wastewater, paper mill, after five years
[4] = 2 μg C8-HSL added every day, 38° C.
[5] = 20 μg C8-HSL added every day, 38° C.
[6] = 30 μg C8-HSL added every day (150 mg/m^3)
[7] = 30 μg C8-HSL added every day (150 mg/m^3), 38° C.

CCCCCCCC(=O)N[C@H]1CCOC1=O [C8-HSL, N-octyl hypererine lactone]
COD removal rate [1, 3]: 75% | content of coenzyme F420 [1, 3]: 0.19 μmol/gVSS | specific methanogenic activity (SMA) [1, 3]: 24 mL/(gVSS·h) | calcification of the sludge ([1]; 50 mg C8-HSL per cubic meter of papermaking wastewater, paper mill, after five years, without C8-HSL obvious calcification for up to two years): has not been calcified | Methanobactium, Methanosaeta and Methanosarcina in the microbial community ([1]; 50 mg C8-HSL per cubic meter of papermaking wastewater, paper mill, sequencing analysis): enhanced | effect on delaying calcification ([1]; paper mill reactor, compared with before signal molecule addition): obvious | increase of activity of coenzyme F420 compared with the reactor without exogenous signal molecules ([2]; 2 μg C8-HSL added every day): 33.5% | increase of removal rate of COD compared with the reactor without exogenous signal molecules ([2]; 2 μg C8-HSL added every day): 10.8% | increase of specific methanogenic activity (SMA) compared with the reactor without exogenous signal molecules ([2]; 2 μg C8-HSL added every day): 32.4% | chemical oxygen demand (COD) removal rate [2, 4]: 75% | content of coenzyme F420 [2, 4]: 0.18 μmol/gVSS | specific methanogenic activity (SMA) [2, 4]: 25 mL/(gVSS·h) | Methanobactium, Methanosaeta and Methanosarcina in the microbial community ([2]; 2 μg C8-HSL added every day): enhanced | increase of activity of coenzyme F420 compared with the reactor without exogenous signal molecules ([2]; 20 μg C8-HSL added every day): 48.1% | increase of removal rate of COD compared with the reactor without exogenous signal molecules ([2]; 20 μg C8-HSL added every day): 18.2% | increase of specific methanogenic activity (SMA) compared with the reactor without exogenous signal molecules ([2]; 20 μg C8-HSL added every day): 43% | COD removal rate [2, 5]: 80% | content of coenzyme F420 [2, 5]: 0.20 μmol/gVSS | specific methanogenic activity (SMA) [2, 5]: 27 mL/(gVSS·h) | Methanobactium, Methanosaeta and Methanosarcina in the microbial community ([2]; 20 μg C8-HSL added every day): enhanced | increase of activity of coenzyme F420 compared with the reactor of adding 100 mg signal molecule per cubic meter of papermaking wastewater [2, 6]: 1.5% | increase of activity of coenzyme F420 compared with the reactor without exogenous signal molecules [2, 6]: 50.38% | increase of removal rate of COD compared with the reactor of adding 100 mg signal molecule per cubic meter of papermaking wastewater [2, 6]: 0.375% | increase of removal rate of COD compared with the reactor without exogenous signal molecules [2, 6]: 18.63% | increase of specific methanogenic activity (SMA) compared with the reactor of adding 100 mg signal molecule per cubic meter of papermaking wastewater [2, 6]: 1.85% | increase of specific methanogenic activity (SMA) compared with the reactor without exogenous signal molecules [2, 6]: 45.66% | COD removal rate [2, 7]: 80.3% | content of coenzyme F420 [2, 7]: 0.203 μmol/gVSS | specific methanogenic activity (SMA) [2, 7]: 27.5 mL/(gVSS·h) | Methanobactium, Methanosaeta and Methanosarcina in the microbial community [2, 6]: enhanced
